Source: US6380198B1 (Laboratoire Medidom S.A., priority 1997, dated 2002)
Values joined by “and” are separate entries in the source; they are usually repeats but may differ in a detail not shown here. Equal entries are not always repeated.

Assays:
[1] = tested on: intraocular pressure; conditions: Payene et al. 1990; cited from earlier work
[2] = tested on: intraocular pressure of rabbits showing normal baseline intraocular pressure; test: Intraocular pressure in rabbits with normal intraocular pressure after topical instillation; type: in vivo, rabbit (Vienna Blue, pigmented); conditions: for Intraocular pressure (mmHg) at the time (min): 30, average ± S.D. / Intraocular pressure (mmHg) at the time (min): 60, average ± S.D. / Intraocular pressure (mmHg) at the time (min): 90, average ± S.D. / Intraocular pressure (mmHg) at the time (min): 120, average ± S.D. / Intraocular pressure (mmHg) at the time (min): 180, average ± S.D. / Intraocular pressure (mmHg) at the time (min): 240, average ± S.D. / Intraocular pressure (mmHg) at the time (min): 0, average ± S.D. / Intraocular pressure (mmHg) at the time (min): 30 / Intraocular pressure (mmHg) at the time (min): 60 / Intraocular pressure (mmHg) at the time (min): 90 / Intraocular pressure (mmHg) at the time (min): 120 / Intraocular pressure (mmHg) at the time (min): 180 / Intraocular pressure (mmHg) at the time (min): 240 / Intraocular pressure (mmHg) at the time (min): 0: Table 1, 50 μl eye-drops: 0.050% flunarizine, 0.056% verapamil, 0.051% diltiazem, 0.043% nifedipine; for Intraocular pressure (mmHg) at the time (min): 30, average ± S.D. / Intraocular pressure (mmHg) at the time (min): 60, average ± S.D. / Intraocular pressure (mmHg) at the time (min): 90, average ± S.D. / Intraocular pressure (mmHg) at the time (min): 120, average ± S.D. / Intraocular pressure (mmHg) at the time (min): 180, average ± S.D. / Intraocular pressure (mmHg) at the time (min): 240, average ± S.D. / Intraocular pressure (mmHg) at the time (min): 0, average ± S.D.: average ± S.D. of 4 rabbits; for Intraocular pressure (mmHg) at the time (min): 30, average ± S.D. / Intraocular pressure (mmHg) at the time (min): 30: 30 min after instillation; for Intraocular pressure (mmHg) at the time (min): 60, average ± S.D. / Intraocular pressure (mmHg) at the time (min): 60: 60 min after instillation; for Intraocular pressure (mmHg) at the time (min): 90, average ± S.D. / Intraocular pressure (mmHg) at the time (min): 90: 90 min after instillation; for Intraocular pressure (mmHg) at the time (min): 120, average ± S.D. / Intraocular pressure (mmHg) at the time (min): 120: 120 min after instillation; for Intraocular pressure (mmHg) at the time (min): 180, average ± S.D. / Intraocular pressure (mmHg) at the time (min): 180: 180 min after instillation; for Intraocular pressure (mmHg) at the time (min): 240, average ± S.D. / Intraocular pressure (mmHg) at the time (min): 240: 240 min after instillation; for Intraocular pressure (mmHg) at the time (min): 0, average ± S.D. / Intraocular pressure (mmHg) at the time (min): 0: time 0 = 15 min before instillation (baseline); for Intraocular pressure (mmHg) at the time (min): 30 / Intraocular pressure (mmHg) at the time (min): 60 / Intraocular pressure (mmHg) at the time (min): 90 / Intraocular pressure (mmHg) at the time (min): 120 / Intraocular pressure (mmHg) at the time (min): 180 / Intraocular pressure (mmHg) at the time (min): 240 / Intraocular pressure (mmHg) at the time (min): 0: individual rabbit, right eye
Experimental: The effects of the agent of the invention on the intraocular pressure of rabbits showing normal baseline intraocular pressure were evaluated in comparison with the action of a placebo, and with that of various other calcium channel blocking agents. Female pigmented rabbits of the Vienna Blue strain were used (supplied by Charles River Italiana, of Calco (CO)). The age of the animals at the time of starting the experimentation was 9 weeks, and their weight was 2.0-2.5 kg.
The choice of a species with pigmented iris is due to the fact that the latter represents a reliable model for the evaluation of possible modifications of the intraocular pressure caused by the products under test. The strain chosen is genetically defined, so as to limit to a minimum the variability of the biological characteristics between one animal and the other.
The animals were kept in rooms maintained under constant and controlled conditions of temperature and humidity, illuminated for 12 hours a day with artificial light and with continuous renovation of the air. The feed consisted of a standard diet having a constant and known composition, and both feed and water were available ad libitum during the whole period of the test. The rabbits were stabled for 21 days before starting the test, so as to allow a sufficient acclimatation and to suitably evaluate the health conditions of the rabbits. Each experimental group consisted of 4 animals, which were allotted to the treatment groups in a randomised way.
Each different group of animals received, by instillation in the right conjunctival fornix, 50 μl of the following products:
The weight concentrations of the various agents under test are chosen so as to correspond to the same molar concentration.
The pressure in the treated eye was measured by flattening tonometer (TonopenXL®, Mentor), 15 minutes before the instillation of the eyerops (time 0) and then 30, 60, 90, 120, 180 and 240 minutes after. As a local anaesthetic, 5 minutes before carrying out each measurement 25 μl of a commercial ophthalmic solution containing 0.4% oxybuprocaine hydrochloride (Novesine®, Sandoz) was instilled. To carry out the measurement the rabbits were placed in a suitably designed cage, that prevents any sudden movement of the animal under test.
For each animal and at each of the times listed above the average of three subsequent measurements was calculated and recorded, each one said measurements being made after 1 minute from the previous one. The intraocular pressure values at the various times were compared with the values obtained before the treatment, by means of the Student's “t” test. The comparisons between different groups were made by processing the data by the variance analysis (ANOVA) and, where possible, by the Student's “t” test for the comparison of two different experimental groups. Values of p<0.05 were considered to be statistically significant.

[3] = target: T1, σ-1 receptors (Oryctolagus cuniculus, UniProt G1SD54); test: Inhibition of 3H(+)-N-allyl-nor-methazocine binding to irido-ciliary body membranes; design: species or system rabbit (New Zealand albino); conditions: rabbit irido-ciliary body P2 membranes, 300 μg protein, 37° C., 150 minutes, duplicate
T1 construct: cell membranes obtained from the irido-ciliary body complex; from tissue; host or cells: rabbit irido-ciliary body, P2 membrane fraction
T1 sequence (G1SD54 1-223): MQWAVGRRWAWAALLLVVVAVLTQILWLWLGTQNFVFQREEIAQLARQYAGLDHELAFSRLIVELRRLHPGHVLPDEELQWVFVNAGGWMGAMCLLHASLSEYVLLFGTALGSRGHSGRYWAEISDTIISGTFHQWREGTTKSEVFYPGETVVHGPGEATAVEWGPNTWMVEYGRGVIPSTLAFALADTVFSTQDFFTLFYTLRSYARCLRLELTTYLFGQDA
Experimental: The receptor binding technique was carried out on cell membranes obtained from the irido-ciliary body complex explanted, after sacrifice, from male albino rabbits of the New Zealand strain (Charles River Italiana, of Calco (CO)). The tissue was homogenised in buffer and the P2, fraction, rich in cell membrane proteins, was isolated. […] The La total protein concentration was determined with the Lowry method.
The non specific binding was evaluated in presence of haloperidol.
All tests were carried out in duplicate. The reaction was maintained at 37° C. for 150 minutes, followed by filtration on WhatmannGF/B filters. The radioactivity left on the filters was measured by liquid scintillation spectrometry.

[4] = tested on: intraocular pressure of rabbits with ocular hypertension; test: Intraocular pressure in rabbits with ocular hypertension induced by α-chymotrypsin; type: in vivo, rabbit (Vienna Blue, pigmented); conditions: for Intraocular pressure (mmHg) at the time (min): 30, average ± S.D. / Intraocular pressure (mmHg) at the time (min): 60, average ± S.D. / Intraocular pressure (mmHg) at the time (min): 90, average ± S.D. / Intraocular pressure (mmHg) at the time (min): 120, average ± S.D. / Intraocular pressure (mmHg) at the time (min): 180, average ± S.D. / Intraocular pressure (mmHg) at the time (min): 240, average ± S.D. / Intraocular pressure (mmHg) at the time (min): 0, average ± S.D. / Intraocular pressure (mmHg) at the time (min): 30 / Intraocular pressure (mmHg) at the time (min): 60 / Intraocular pressure (mmHg) at the time (min): 90 / Intraocular pressure (mmHg) at the time (min): 120 / Intraocular pressure (mmHg) at the time (min): 180 / Intraocular pressure (mmHg) at the time (min): 240 / Intraocular pressure (mmHg) at the time (min): 0: Table 3, hypertensive rabbits, 50 μl eye-drops: 0.050% flunarizine, 0.056% verapamil, 0.051% diltiazem, 0.043% nifedipine; for Intraocular pressure (mmHg) at the time (min): 30, average ± S.D. / Intraocular pressure (mmHg) at the time (min): 60, average ± S.D. / Intraocular pressure (mmHg) at the time (min): 90, average ± S.D. / Intraocular pressure (mmHg) at the time (min): 120, average ± S.D. / Intraocular pressure (mmHg) at the time (min): 180, average ± S.D. / Intraocular pressure (mmHg) at the time (min): 240, average ± S.D. / Intraocular pressure (mmHg) at the time (min): 0, average ± S.D.: average ± S.D. of 4 rabbits; for Intraocular pressure (mmHg) at the time (min): 30, average ± S.D. / Intraocular pressure (mmHg) at the time (min): 30: 30 min after instillation; for Intraocular pressure (mmHg) at the time (min): 60, average ± S.D. / Intraocular pressure (mmHg) at the time (min): 60: 60 min after instillation; for Intraocular pressure (mmHg) at the time (min): 90, average ± S.D. / Intraocular pressure (mmHg) at the time (min): 90: 90 min after instillation; for Intraocular pressure (mmHg) at the time (min): 120, average ± S.D. / Intraocular pressure (mmHg) at the time (min): 120: 120 min after instillation; for Intraocular pressure (mmHg) at the time (min): 180, average ± S.D. / Intraocular pressure (mmHg) at the time (min): 180: 180 min after instillation; for Intraocular pressure (mmHg) at the time (min): 240, average ± S.D. / Intraocular pressure (mmHg) at the time (min): 240: 240 min after instillation; for Intraocular pressure (mmHg) at the time (min): 0, average ± S.D. / Intraocular pressure (mmHg) at the time (min): 0: time 0 = 15 min before instillation (baseline); for Intraocular pressure (mmHg) at the time (min): 30 / Intraocular pressure (mmHg) at the time (min): 60 / Intraocular pressure (mmHg) at the time (min): 90 / Intraocular pressure (mmHg) at the time (min): 120 / Intraocular pressure (mmHg) at the time (min): 180 / Intraocular pressure (mmHg) at the time (min): 240 / Intraocular pressure (mmHg) at the time (min): 0: individual rabbit, right eye
Experimental: Rabbits of the same type as those described in the previous section were used for the following tests.
In the rabbit, the injection of this enzyme in the posterior chamber causes, after one month from the administration, an effect of ocular hypertension.
At the end of the quarantine period the rabbits were anaesthetised by intramuscular administration of ketamine hydrochloride and xylazine hydrochloride (RBI). The right eye was gently pushed outwardly after instilling 25 μl of Novesine® eye-drops, containing oxybuprocaine as an anaesthetic; then, a sterile solution of σ-chymotrypsin (SIGMA, Milan; 150 units in 100 μl of physiologic sterile solution) was injected in the posterior chamber of the right eye by means of a 30G sterile needle. After the administration of the enzyme, the eye was thoroughly washed with physiologic sterile solution in order to remove any traces of α-chymotrypsin which could damage the ocular tissues. Then, 2 drops of a commercial ophthalmic antibiotic solution (Colbiocin®, SIFI S.p.A., containing chloramphenicol, rolitetracycline, colistin methanesulphonate) were instilled. The treatment was carried out 3 times a day (at 8.00 a.m., 12.00 a.m. and 6.00 p.m.) for one week after the administration of α-chymotrypsin. The rabbits were employed in the tests after one month from the induction of ocular hypertension by means of the enzyme.
The rabbits, divided also in this case in groups of 4 animals, were treated by instillation of 50 μl of the product under test in the right conjunctival fornix.
The intraocular pressure in the treated eye was measured, according to the same procedure as in the previous tests, 15 minutes before the instillation of the eye-drops and 30, 60, 90, 120, 180 and 240 minutes after. The values obtained were statistically analysed according to the criteria mentioned in the foregoing.
The experimental conditions were exactly the same as before.

[5] = tested on: cornea (corneal thickness); conditions: rabbit, in vivo
Experimental: The evaluation of the thickness of the cornea was carried out ecographically by means of a UBM System 840 (Humphrey Instruments, San Leandro, Calif., USA). […] The software incorporated allows to modify the focalisation depth of the ultrasound beam, and to capture the image while varying its amplification.
The animals employed in this test were of the same type as those described in the foregoing, and were treated in the same way. The test was carried out, after having anaesthetised the animal (with ketamine hydrochloride and xylazine hydrochloride), by placing into contact with the eyeball tiny cups filled in with a coupling means (ultrasound gel).

[6] = 50 μl eye-drops, 0.050% flunarizine, equimolar comparators, 0.5% timolol

Row | IC50 [3] [µM] | Compound | Intraocular pressure (mmHg) at the time (min): 30, average ± S.D. [2] [mmHg] | Intraocular pressure (mmHg) at the time (min): 60, average ± S.D. [2] [mmHg] | Intraocular pressure (mmHg) at the time (min): 90, average ± S.D. [2] [mmHg] | Intraocular pressure (mmHg) at the time (min): 120, average ± S.D. [2] [mmHg] | Intraocular pressure (mmHg) at the time (min): 180, average ± S.D. [2] [mmHg] | Intraocular pressure (mmHg) at the time (min): 240, average ± S.D. [2] [mmHg] | Intraocular pressure (mmHg) at the time (min): 0, average ± S.D. [2] [mmHg] | Intraocular pressure (mmHg) at the time (min): 30 [2] | Intraocular pressure (mmHg) at the time (min): 60 [2] | Intraocular pressure (mmHg) at the time (min): 90 [2] | Intraocular pressure (mmHg) at the time (min): 120 [2] | Intraocular pressure (mmHg) at the time (min): 180 [2] | Intraocular pressure (mmHg) at the time (min): 240 [2] | Intraocular pressure (mmHg) at the time (min): 0 [2] | Intraocular pressure (mmHg) at the time (min): 30, average ± S.D. [4] [mmHg] | Intraocular pressure (mmHg) at the time (min): 60, average ± S.D. [4] [mmHg] | Intraocular pressure (mmHg) at the time (min): 90, average ± S.D. [4] [mmHg] | Intraocular pressure (mmHg) at the time (min): 120, average ± S.D. [4] [mmHg] | Intraocular pressure (mmHg) at the time (min): 180, average ± S.D. [4] [mmHg] | further results
1 | > 10 | COc1ccc([C@@H]2Sc3ccccc3N(CCN(C)C)C(=O)[C@@H]2OC(C)=O)cc1 [diltiazem] | 15.2 ± 1.2 | 14.7 ± 0.9 | 14.7 ± 0.9 | 15 ± 0.5 | 16.2 ± 0.95 | 16 ± 0.6 | 16.7 ± 1.5 | 14 mmHg and 15 mmHg (2×) and 17 mmHg | 14 mmHg (2×) and 17 mmHg and 13 mmHg | 14 mmHg (2×) and 16 mmHg and 15 mmHg | 15 mmHg (2×) and 16 mmHg (2×) | 15 mmHg and 16 mmHg and 17 mmHg (2×) | 16 mmHg (2×) and 17 mmHg (2×) | 15 mmHg and 16 mmHg and 18 mmHg (2×) | 49.5 ± 5.80 | 47.5 ± 5.80 | 48.2 ± 5.90 | 49.5 ± 5.68 | 49.0 ± 5.71 | Intraocular pressure after topical administration to rabbits [1]: did not detect any significant effect; Effect on intraocular pressure in rabbits with normal pressure, in words [2, 6]: neither the verapamil formulation nor the diltiazem formulation, both using the same vehicle as MEG 01, did produce any intraocular pressure decrease; Effect on intraocular pressure in rabbits with ocular hypertension, in words [4, 6]: do not show any significant reduction; Intraocular pressure (mmHg) at the time (min): 240, average ± S.D. [4]: 48.7 ± 6.13 mmHg; Intraocular pressure (mmHg) at the time (min): 0, average ± S.D. [4]: 49.0 ± 5.71 mmHg; Intraocular pressure (mmHg) at the time (min): 30 [4]: 55 mmHg and 53 mmHg and 48 mmHg and 42 mmHg; Intraocular pressure (mmHg) at the time (min): 60 [4]: 53 mmHg and 51 mmHg and 46 mmHg and 40 mmHg; Intraocular pressure (mmHg) at the time (min): 90 [4]: 54 mmHg and 52 mmHg and 46 mmHg and 41 mmHg; Intraocular pressure (mmHg) at the time (min): 120 [4]: 56 mmHg and 52 mmHg and 47 mmHg and 43 mmHg; Intraocular pressure (mmHg) at the time (min): 180 [4]: 56 mmHg and 51 mmHg and 48 mmHg and 43 mmHg; Intraocular pressure (mmHg) at the time (min): 240 [4]: 55 mmHg and 52 mmHg and 47 mmHg and 41 mmHg; Intraocular pressure (mmHg) at the time (min): 0 [4]: 55 mmHg and 52 mmHg and 47 mmHg and 42 mmHg
2 | > 10 | COC(=O)C1=C(C)NC(C)=C(C(=O)OC)C1c1ccccc1[N+](=O)[O-] [nifedipine] | 14.7 ± 1.2 | 13.7 ± 0.9 | 15.5 ± 0.6 | 16.0 ± 1.5 | 16.5 ± 1.7 | 16 ± 0 | 15.7 ± 1.7 | 15 mmHg (2×) and 13 mmHg and 16 mmHg | 14 mmHg and 13 mmHg (2×) and 15 mmHg | 16 mmHg (2×) and 15 mmHg (2×) | 16 mmHg | 17 mmHg (2×) and 15 mmHg (2×) | 17 mmHg (2×) and 14 mmHg and 18 mmHg | 16 mmHg and 15 mmHg and 14 mmHg and 18 mmHg | 47.7 ± 7.18 | 46.75 ± 6.13 | 46.5 ± 6.19 | 47.0 ± 5.47 | 48.00 ± 4.98 | Corneal swelling / alteration of corneal thickness, in words [5]: No significant effect; Intraocular pressure (mmHg) at the time (min): 240, average ± S.D. [4]: 48.00 ± 4.96 mmHg; Intraocular pressure (mmHg) at the time (min): 0, average ± S.D. [4]: 48.0 ± 5.47 mmHg; Intraocular pressure (mmHg) at the time (min): 30 [4]: 55 mmHg and 52 mmHg and 45 mmHg and 39 mmHg; Intraocular pressure (mmHg) at the time (min): 60 [4]: 53 mmHg and 50 mmHg and 45 mmHg and 39 mmHg; Intraocular pressure (mmHg) at the time (min): 90 [4]: 52 mmHg and 50 mmHg and 46 mmHg and 38 mmHg; Intraocular pressure (mmHg) at the time (min): 120 [4]: 53 mmHg and 49 mmHg and 46 mmHg and 40 mmHg; Intraocular pressure (mmHg) at the time (min): 180 [4]: 54 mmHg and 48 mmHg and 45 mmHg and 41 mmHg; Intraocular pressure (mmHg) at the time (min): 240 [4]: 54 mmHg and 49 mmHg and 47 mmHg and 42 mmHg; Intraocular pressure (mmHg) at the time (min): 0 [4]: 54 mmHg and 50 mmHg and 47 mmHg and 41 mmHg
